# System: HIV-1 (IIIB) in MT-4 cells
# Assay: MT-4 HIV assay
# Format: cell-based
# Conditions: Human immunodeficiency virus 1, MT4, 120 h
# How it was run: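 Antiviral activity was read by Cell Titer Glo after a 5-day, 37 °C culture of MT-4 cells pre-infected with a 1:250 dilution of HIV-1 (IIIB). Compounds were tested as threefold dilution series in complete RPMI. Controls were no drug, mock infection and 5 uM AZT.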
row,SMILES,EC50
1,"COC(=O)N[C@H](C(=O)N[C@@H](Cc1ccc(C#Cc2ccc(N3CC[N+]([O-])(C4COC4)CC3)nc2)cc1)[C@@H](O)CN(Cc1c(F)cc(-c2ccn(C(F)F)n2)cc1F)NC(=O)[C@@H](NC(=O)OC)C(C)(C)C(F)(F)F)C(C)(C)C(F)(F)F [Example 54, 4-(5-((4-((2S,3S)-4-(1-(4-(1-(difluoromethyl)-1H-pyrazol-3-yl)-2,6-difluorobenzyl)-2-((S)-4,4,4-trifluoro-2-((methoxycarbonyl)amino)-3,3-dimethylbutanoyl)hydrazinyl)-3-hydroxy-2-((S)-4,4,4-trifluoro-2-((methoxycarbonyl)amino)-3,3-dimethylbutanamido)butyl)phenyl)ethynyl)pyridin-2-yl)-1-(oxetan-3-yl)piperazine 1-oxide]",8.47 nM
2,"COC(=O)N[C@H](C(=O)N[C@@H](Cc1ccc(-c2ccc(N3C[C@H]4C[C@@H]3CN4C3COC3)nc2)cc1)[C@@H](O)CN(Cc1c(F)cc(-c2ccn(C(F)F)n2)cc1F)NC(=O)[C@@H](NC(=O)OC)C(C)(C)C(F)(F)F)C(C)(C)C(F)(F)F [Example 196, Methyl ((5S,8S,9S,14S)-11-(4-(1-(difluoromethyl)-1H-pyrazol-3-yl)-2,6-difluorobenzyl)-16,16,16-trifluoro-9-hydroxy-15,15-dimethyl-8-(4-(6-((1R,4R)-5-(oxetan-3-yl)-2,5-diazabicyclo[2.2.1]heptan-2-yl)pyridin-3-yl)benzyl)-3,6,13-trioxo-5-(1,1,1-trifluoro-2-methylpropan-2-yl)-2-oxa-4,7,11,12-tetraazahexadecan-14-yl)carbamate]",10.5 nM
3,"COC(=O)N[C@H](C(=O)N[C@@H](Cc1ccc(-c2cnc(N3C[C@H]4C[C@@H]3CN4C3COC3)nc2)cc1)[C@@H](O)CN(Cc1c(F)cc(-c2ccn(CC(F)F)n2)cc1F)NC(=O)[C@@H](NC(=O)OC)C(C)(C)C(F)(F)F)C(C)(C)C(F)(F)F [Example 191, Methyl ((5S,8S,9S,14S)-11-(4-(1-(2,2-difluoroethyl)-1H-pyrazol-3-yl)-2,6-difluorobenzyl)-16,16,16-trifluoro-9-hydroxy-15,15-dimethyl-8-(4-(2-((1R,4R)-5-(oxetan-3-yl)-2,5-diazabicyclo[2.2.1]heptan-2-yl)pyrimidin-5-yl)benzyl)-3,6,13-trioxo-5-(1,1,1-trifluoro-2-methylpropan-2-yl)-2-oxa-4,7,11,12-tetraazahexadecan-14-yl)carbamate]",17.4 nM

# Same assay, conditions: Human immunodeficiency virus 1, MT4, 120 h; HIV-1 (IIIB), MT-4 cells, 5 days, Cell Titer Glo; read-out: EC50
row,SMILES,EC50
1,"COC(=O)N[C@H](C(=O)N[C@@H](Cc1ccc(C#Cc2ccc3nc(N4CC5CCC(C4)N5C4COC4)ccc3n2)cc1)[C@@H](O)CN(Cc1c(F)cc(-c2ccn(C(F)F)n2)cc1F)NC(=O)[C@@H](NC(=O)OC)C(C)(C)C(F)(F)F)C(C)(C)C(F)(F)F [Example 47, Methyl ((5S,8S,9S,14S)-11-(4-(1-(difluoromethyl)-1H-pyrazol-3-yl)-2,6-difluorobenzyl)-16,16,16-trifluoro-9-hydroxy-15,15-dimethyl-8-(4-((6-(8-(oxetan-3-yl)-3,8-diazabicyclo[3.2.1]octan-3-yl)-1,5-naphthyridin-2-yl)ethynyl)benzyl)-3,6,13-trioxo-5-(1,1,1-trifluoro-2-methylpropan-2-yl)-2-oxa-4,7,11,12-tetraazahexadecan-14-yl)carbamate]",7.18 nM
2,"CC(C)([C@H](NC(=O)OC1COC1)C(=O)N[C@@H](Cc1ccc(C#Cc2ccc(N3CC4CCC(C3)N4C3COC3)nc2)cc1)[C@@H](O)CN(Cc1c(F)cc(-c2ccn(C(F)F)n2)cc1F)NC(=O)[C@@H](NC(=O)OC1COC1)C(C)(C)C(F)(F)F)C(F)(F)F [Example 169, oxetan-3-yl ((2S)-1-(2-(4-(1-(difluoromethyl)-1H-pyrazol-3-yl)-2,6-difluorobenzyl)-2-((2S,3S)-2-hydroxy-4-(4-((6-(8-(oxetan-3-yl)-3,8-diazabicyclo[3.2.1]octan-3-yl)pyridin-3-yl)ethynyl)phenyl)-3-((S)-4,4,4-trifluoro-33-dimethyl-2-(((oxetan-3-yloxy)carbonyl)amino)butanamido)butyl)hydrazinyl)-4,4,4-trifluoro-3,3-dimethyl-1-oxobutan-2-yl)carbamate]",6.76 nM
3,"COC(=O)N[C@H](C(=O)N[C@@H](Cc1ccc(-c2cnc(N3CC4CCC(C3)N4C3COC3)nc2)cc1)[C@@H](O)CN(Cc1c(F)cc(-c2cn(C(F)F)cn2)cc1F)NC(=O)[C@@H](NC(=O)OC)C(C)(C)C(F)(F)F)C(C)(C)C(F)(F)F [Example 189, Methyl ((5S,8S,9S,14S)-11-(4-(1-(difluoromethyl)-1H-imidazol-4-yl)-2,6-difluorobenzyl)-16,16,16-trifluoro-9-hydroxy-15,15-dimethyl-8-(4-(2-(8-(oxetan-3-yl)-3,8-diazabicyclo[3.2.1]octan-3-yl)pyrimidin-5-yl)benzyl)-3,6,13-trioxo-5-(1,1,1-trifluoro-2-methylpropan-2-yl)-2-oxa-4,7,11,12-tetraazahexadecan-14-yl)carbamate]",5.47 nM
4,"COC(=O)N[C@H](C(=O)N[C@@H](Cc1ccc(C#Cc2cnc(N3C[C@H]4C[C@@H]3CN4C3COC3)nc2)cc1)[C@@H](O)CN(Cc1ccc(-c2ccn(C3CC3)n2)cc1)NC(=O)[C@@H](NC(=O)OC)C(C)(C)C(F)(F)F)C(C)(C)C(F)(F)F [Example 30, methyl ((5S,8S,9S,14S)-11-(4-(1-cyclopropyl-1H-pyrazol-3-yl)benzyl)-16,16,16-trifluoro-9-hydroxy-15,15-dimethyl-8-(4-((2-((1R,4R)-5-(oxetan-3-yl)-2,5-diazabicyclo[2.2.1]heptan-2-yl)pyrimidin-5-yl)ethynyl)benzyl)-3,6,13-trioxo-5-(1,1,1-trifluoro-2-methylpropan-2-yl)-2-oxa-4,7,11,12-tetraazahexadecan-14-yl)carbamate]",4.44 nM
5,"COC(=O)N[C@H](C(=O)N[C@@H](Cc1ccc(C#Cc2ccc(N3CC4CCC(C3)N4C(=O)[C@@H]3CCCO3)nc2)cc1)[C@@H](O)CN(Cc1c(F)cc(-c2cnc(F)c(F)c2)cc1F)NC(=O)[C@@H](NC(=O)OC)C(C)(C)C)C(C)(C)C [Example 64, Methyl ((5S,8S,9S,14S)-5-(tert-butyl)-11-(4-(5,6-difluoropyridin-3-yl)-2,6-difluorobenzyl)-9-hydroxy-15,15-dimethyl-3,6,13-trioxo-8-(4-((6-(8-((S)-tetrahydrofuran-2-carbonyl)-3,8-diazabicyclo[3.2.1]octan-3-yl)pyridin-3-yl)ethynyl)benzyl)-2-oxa-4,7,11,12-tetraazahexadecan-14-yl)carbamate]",5.4 nM
6,"COC(=O)N[C@H](C(=O)NN(Cc1c(F)cc(-c2ncccn2)cc1F)C[C@H](O)[C@H](Cc1ccc(C#Cc2ccc(N3CC4CCC(C3)N4C3COC3)nc2)cc1)NC(=O)[C@@H](NC(=O)OC)C(C)(C)C(F)(F)F)C(C)(C)C [Example 96, Methyl ((5S,8S,9S,14S)-11-(2,6-difluoro-4-(pyrimidin-2-yl)benzyl)-9-hydroxy-15,15-dimethyl-8-(4-((6-(8-(oxetan-3-yl)-3,8-diazabicyclo[3.2.1]octan-3-yl)pyridin-3-yl)ethynyl)benzyl)-3,6,13-trioxo-5-(1,1,1-trifluoro-2-methylpropan-2-yl)-2-oxa-4,7,11,12-tetraazahexadecan-14-yl)carbamate]",2.33 nM
7,"COC(=O)N[C@H](C(=O)NN(Cc1c(F)cc(-c2ccn(CC(F)F)n2)cc1F)C[C@H](O)[C@H](Cc1ccc(C#Cc2ccc(N3C[C@H]4C[C@@H]3CN4C3COC3)nc2)cc1)NC(=O)[C@@H](NC(=O)OC)C(C)(C)C(F)(F)F)C(C)(C)C [Example 8, methyl ((5S,8S,9S,14S)-11-(4-(1-(2,2-difluoroethyl)-1H-pyrazol-3-yl)-2,6-difluorobenzyl)-9-hydroxy-15,15-dimethyl-8-(4-((6-((1R,4R)-5-(oxetan-3-yl)-2,5-diazabicyclo[2.2.1]heptan-2-yl)pyridin-3-yl)ethynyl)benzyl)-3,6,13-trioxo-5-(1,1,1-trifluoro-2-methylpropan-2-yl)-2-oxa-4,7,11,12-tetraazahexadecan-14-yl)carbamate]",2.46 nM
8,"COC(=O)N[C@H](C(=O)N[C@@H](Cc1ccc(C#Cc2nc(N3CC4CCC(C3)N4C3COC3)nc(N3C[C@H]4CC[C@@H](C3)N4C3COC3)n2)cc1)[C@@H](O)CN(Cc1c(F)cc(-c2ccn(C(F)F)n2)cc1F)NC(=O)[C@@H](NC(=O)OC)C(C)(C)C(F)(F)F)C(C)(C)C(F)(F)F [Example 49, Methyl ((5S,8S,9S,14S)-11-(4-(1-(difluoromethyl)-1H-pyrazol-3-yl)-2,6-difluorobenzyl)-16,16,16-trifluoro-9-hydroxy-15,15-dimethyl-8-(4-((4-((1R,5S)-8-(oxetan-3-yl)-3,8-diazabicyclo[3.2.1]octan-3-yl)-6-(8-(oxetan-3-yl)-3,8-diazabicyclo[3.2.1]octan-3-yl)-1,3,5-triazin-2-yl)ethynyl)benzyl)-3,6,13-trioxo-5-(1,1,1-trifluoro-2-methylpropan-2-yl)-2-oxa-4,7,11,12-tetraazahexadecan-14-yl)carbamate]",37.3 nM
9,"COC(=O)N[C@H](C(=O)N[C@@H](Cc1ccc(C#Cc2ccc(N3C[C@H]4C[C@@H]3CN4C3COC3)nc2)cc1)[C@@H](O)CN(Cc1ccc(-c2ccn(C(F)F)n2)cc1)NC(=O)[C@@H](NC(=O)OC)C(C)(C)C(F)(F)F)C(C)(C)C(F)(F)F [Example 29, Methyl ((5S,8S,9S,14S)-11-(4-(1-(difluoromethyl)-1H-pyrazol-3-yl)benzyl)-16,16,16-trifluoro-9-hydroxy-15,15-dimethyl-8-(4-((6-((1R,4R)-5-(oxetan-3-yl)-2,5-diazabicyclo [2.2.1]heptan-2-yl)pyridin-3-yl)ethynyl)benzyl)-3,6,13-trioxo-5-(1,1,1-trifluoro-2-methylpropan-2-yl)-2-oxa-4,7,11,12-tetraazahexadecan-14-yl)carbamate]",4.02 nM
